# According to PMC11078746 (Nature, 2024):
# Several values for one entry are separate records, joined by “and”; a condition that tells them apart may be missing. Equal entries are not always repeated.
# What was measured:
# HEC6 = assay: CFA 10-14 day clonogenic assay; type: cell-based; conditions: Homo sapiens, HEC-6
# SNU407 = assay: CFA 10-14 day clonogenic assay; type: cell-based; conditions: Homo sapiens, SNU-407
# SW48 = assay: cells; conditions: Homo sapiens, SW48, read-out: CFA 10-14 day assay GI50
# SNUC4 = assay: CFA 10-14 day clonogenic assay; type: cell-based; conditions: Homo sapiens, SNU-C4
# HCT116 [1] = assay: CFA 10-14 day clonogenic assay; type: cell-based; conditions: Homo sapiens, HCT-116
# LOVO = assay: CFA 10-14 day clonogenic assay; type: cell-based; conditions: Homo sapiens
# KM12 [2] = assay: CFA 10-14 day clonogenic assay; type: cell-based; conditions: Homo sapiens
# HEC59 = assay: CFA 10-14 day clonogenic assay; type: cell-based; conditions: Homo sapiens
# 2313287 = assay: CFA 10-14 day clonogenic assay; type: cell-based; conditions: Homo sapiens
# CAL33 = assay: CFA 10-14 day clonogenic assay; type: cell-based; conditions: Homo sapiens, CAL-33
# HCT116 [3] = assay: 4 day proliferation assay (CellTiter-Glo)
# HEC265 = assay: 4 day proliferation assay (CellTiter-Glo); conditions: Homo sapiens, 96 h, read-out: 4 day assay GI50
# CW2 = assay: 4 day proliferation assay (CellTiter-Glo); conditions: Homo sapiens, CW-2, 96 h, read-out: 4 day assay GI50
# KM12 [4] = assay: 4 day proliferation assay (CellTiter-Glo); conditions: Homo sapiens, KM12, 96 h, read-out: 4 day assay GI50
# HEC108 = assay: 4 day proliferation assay (CellTiter-Glo); conditions: Homo sapiens, 96 h, read-out: 4 day assay GI50
# LS180 = assay: 4 day proliferation assay (CellTiter-Glo); conditions: Homo sapiens, LS180, 96 h, read-out: 4 day assay GI50
# OVK18 = assay: 4 day proliferation assay (CellTiter-Glo); conditions: Homo sapiens, OVK18, 96 h, read-out: 4 day assay GI50
# IM95 = assay: 4 day proliferation assay (CellTiter-Glo); conditions: Homo sapiens, IM95, 96 h, read-out: 4 day assay GI50
# HEC151 = assay: 4 day proliferation assay (CellTiter-Glo); conditions: Homo sapiens, 96 h, read-out: 4 day assay GI50
# EN = assay: 4 day proliferation assay (CellTiter-Glo); conditions: Homo sapiens, 96 h, read-out: 4 day assay GI50
# HEC1B = assay: 4 day proliferation assay (CellTiter-Glo); conditions: Homo sapiens, HEC-1B, 96 h, read-out: 4 day assay GI50
# HEC251 = assay: 4 day proliferation assay (CellTiter-Glo); conditions: Homo sapiens, HEC-251, 96 h, read-out: 4 day assay GI50
# SW48 xenografts = assay: SW48 xenograft efficacy, compound 3 p.o. twice daily; type: in vivo, mouse; conditions: for Tumour volume (TVol): single mouse, listed as WRNi #4
# Procedure: All animal studies were conducted in accordance with ethics and procedures covered by permit BS-2275 and BS-1975 issued by the Kantonales Veterinäramt Basel-Stadt and in strict adherence to guidelines of the Eidgenössisches Tierschutzgesetz and the Eidgenössische Tierschutzverordnung, Switzerland. All animal studies were approved by the internal ethics committee. All animals had access to food and water ad libitum and were identified with transponders. They were housed in a specific-pathogen-free facility in IVC racks under a 12 h–12 h light–dark cycle. To establish cell-line-derived xenograft models, 6–7-week-old female athymic nude (Crl:NU(NCr)-Foxn1^nu) or SCID-BEIGE (CB17.Cg-PrkdcscidLystbg-J/Crl) mice from Charles River were engrafted subcutaneously with 5 million tumour cells in HBSS (H6648, Sigma-Aldrich). For SNU-407, Lovo, IM95, RL95.2, Ishikawa and IGROV-1, the cells were concentrated in 50% Matrigel (354234, Corning). Patient-derived xenografts were induced and expanded by transplantation as previously described. […] For the efficacy experiment, mice were randomized into groups (n = 5–6) for a mean tumour size of 100–150 mm^3. […] Blood samples were collected on day 7 and 91. […] Tumour responses are reported with the measures of tumour volumes from the treatment start. […] Animals were randomized (n = 3) and tumour samples were collected at 0, 1, 4, 8 and 24 h on the first day and then collected 4 h after the last treatment on day 3, 8, 10, 14 (including a 24 h timepoint), 17 and 21. Tumours were excised, weighed, either frozen in liquid nitrogen and cryogenic dry pulverized with the CryoPrep system (model CP-02, Covaris) or processed to FFPE after fixation. […] On day 12, blood samples were collected for PK analysis. On the last day (3 h after the last treatment), tumours were excised, weighed, frozen in liquid nitrogen and cryogenic dry pulverized for PD analysis.
compound,measurement,setting,value
CCc1c(N2CCN(C(=O)c3ncnc(C)c3O)CC2)c(=O)n2nc(C3=CCOCC3)nc2n1CC(=O)Nc1ccc(C(F)(F)F)cc1Cl [HRO761],Ames,Ames,Negative
same,GI50,HEC6,0.016 µM
same,GI50,SNU407,0.025 µM
same,GI50,SW48,0.031 µM
same,GI50,SNUC4,0.035 µM
same,GI50,HCT116 [1],0.059 µM
same,GI50,LOVO,0.073 µM
same,GI50,KM12 [2],0.1 µM
same,GI50,HEC59,0.133 µM
same,GI50,2313287,2.08 µM
same,GI50,CAL33,≥ 10 µM
same,GI50,"HCT116 [3]; Homo sapiens, HCT-116, 96 h, read-out: 4 day assay GI50, HCT116",0.116 µM
same,GI50,"HCT116 [3]; read-out: 4 day assay GI50, HCT116",0.143 µM
same,GI50,HEC265,≥ 10 µM
same,GI50,CW2,0.112 µM
same,GI50,KM12 [4],1.38 µM
same,GI50,HEC108,1.46 µM
same,GI50,LS180,3.5 µM
same,GI50,OVK18,≥ 10 µM
same,GI50,IM95,2.01 µM
same,GI50,HEC151,≥ 10 µM
same,GI50,EN,≥ 10 µM
same,GI50,HEC1B,≥ 10 µM
same,GI50,HEC251,≥ 10 µM
CCc1c(N2CCN(C(=O)c3ncccc3O)CC2)c(=O)n2nc(C3=CCOCC3)nc2n1CC(=O)Nc1ccc(C(F)(F)F)cc1C [compound 3],Mean TVol,"SW48 xenografts; 15mg/kg BID, day 0",186.30 mm3
same,Tumour volume (TVol),"SW48 xenografts; 15mg/kg BID, day 0",125.21 mm3 and 176.57 mm3 and 158.22 mm3 and 139.01 mm3 and 236.47 mm3 and 285.36 mm3 and 183.25 mm3
same,Mean TVol,"SW48 xenografts; 15mg/kg BID, day 4",363.88 mm3
same,Tumour volume (TVol),"SW48 xenografts; 15mg/kg BID, day 4",335.90 mm3 and 349.83 mm3 and 278.60 mm3 and 343.34 mm3 and 317.21 mm3 and 499.75 mm3 and 422.53 mm3
same,Mean TVol,"SW48 xenografts; 15mg/kg BID, day 6",401.70 mm3
same,Tumour volume (TVol),"SW48 xenografts; 15mg/kg BID, day 6",446.30 mm3 and 500.68 mm3
same,Mean TVol,"SW48 xenografts; 15mg/kg BID, day 8",483.57 mm3
same,Mean TVol,"SW48 xenografts; 15mg/kg BID, day 11",653.78 mm3
same,Tumour volume (TVol),"SW48 xenografts; 15mg/kg BID, day 11",649.03 mm3 and 796.01 mm3 and 408.88 mm3 and 697.95 mm3 and 448.35 mm3 and 901.30 mm3 and 674.92 mm3
same,Mean TVol,"SW48 xenografts; 15mg/kg BID, day 13",737.71 mm3
same,Tumour volume (TVol),"SW48 xenografts; 15mg/kg BID, day 13",506.43 mm3 and 897.69 mm3 and 575.84 mm3 and 720.03 mm3 and 530.25 mm3 and 1055.13 mm3 and 878.60 mm3
same,Mean TVol,"SW48 xenografts; 50mg/kg BID, day 0",186.25 mm3
same,Tumour volume (TVol),"SW48 xenografts; 50mg/kg BID, day 0",104.69 mm3 and 206.32 mm3 and 158.46 mm3 and 258.06 mm3 and 184.54 mm3 and 140.44 mm3 and 251.24 mm3
same,Mean TVol,"SW48 xenografts; 50mg/kg BID, day 4",286.97 mm3
same,Tumour volume (TVol),"SW48 xenografts; 50mg/kg BID, day 4",175.53 mm3 and 349.15 mm3 and 205.03 mm3 and 394.61 mm3 and 285.83 mm3 and 247.36 mm3 and 351.29 mm3
same,Mean TVol,"SW48 xenografts; 50mg/kg BID, day 6",317.35 mm3
same,Tumour volume (TVol),"SW48 xenografts; 50mg/kg BID, day 6",143.51 mm3 and 438.53 mm3 and 201.74 mm3 and 334.71 mm3 and 301.07 mm3 and 265.24 mm3 and 536.64 mm3
same,Mean TVol,"SW48 xenografts; 50mg/kg BID, day 8",332.70 mm3
same,Mean TVol,"SW48 xenografts; 50mg/kg BID, day 11",410.64 mm3
same,Tumour volume (TVol),"SW48 xenografts; 50mg/kg BID, day 11",304.71 mm3 and 545.58 mm3 and 199.89 mm3 and 340.76 mm3 and 293.59 mm3 and 390.68 mm3 and 799.25 mm3
same,Mean TVol,"SW48 xenografts; 50mg/kg BID, day 13",453.33 mm3
same,Tumour volume (TVol),"SW48 xenografts; 50mg/kg BID, day 13",281.31 mm3 and 743.48 mm3 and 206.77 mm3 and 483.85 mm3 and 288.10 mm3 and 511.66 mm3 and 658.13 mm3
same,tumour response,SW48 xenografts; 150 mg per kg orally twice daily,stable disease
same,Mean TVol,"SW48 xenografts; 150mg/kg BID, day 0",186.70 mm3
same,Tumour volume (TVol),"SW48 xenografts; 150mg/kg BID, day 0 post 1st dose",121.54 mm3 and 271.88 mm3 and 115.87 mm3 and 175.12 mm3 and 222.88 mm3 and 177.21 mm3 and 222.42 mm3
same,Mean TVol,"SW48 xenografts; 150mg/kg BID, day 4",226.51 mm3
same,Tumour volume (TVol),"SW48 xenografts; 150mg/kg BID, day 4",200.34 mm3 and 361.96 mm3 and 112.57 mm3 and 220.17 mm3 and 244.46 mm3 and 160.01 mm3 and 286.05 mm3
same,Mean TVol,"SW48 xenografts; 150mg/kg BID, day 6",224.94 mm3
same,Tumour volume (TVol),"SW48 xenografts; 150mg/kg BID, day 6",174.76 mm3 and 361.01 mm3 and 147.06 mm3 and 189.44 mm3 and 231.82 mm3 and 170.17 mm3 and 300.33 mm3
same,Mean TVol,"SW48 xenografts; 150mg/kg BID, day 8",196.74 mm3
same,Mean TVol,"SW48 xenografts; 150mg/kg BID, day 11",203.13 mm3
same,Tumour volume (TVol),"SW48 xenografts; 150mg/kg BID, day 11",147.98 mm3 and 318.20 mm3 and 124.24 mm3 and 228.02 mm3 and 223.70 mm3 and 145.76 mm3 and 234.03 mm3
same,Mean TVol,"SW48 xenografts; 150mg/kg BID, day 13",172.38 mm3
same,Tumour volume (TVol),"SW48 xenografts; 150mg/kg BID, day 13",158.96 mm3 and 252.06 mm3 and 121.12 mm3 and 163.89 mm3 and 181.33 mm3 and 166.20 mm3 and 163.13 mm3
same,Reg,SW48 xenografts; 150 mg/kg p.o. twice daily,4 % Reg
